These results are taken from the NIST ThermoML archive (doi:10.1021/je300920t).

For data set [1] the following is noted: Drop volume.
A short description of data set [2]: xn = mol fraction of the nth substance listed. As to conditions: Drop volume, x1 = 0.5412.

Each structure is given as a SMILES string. Numbers after ± are expanded uncertainties.

In general, surface tension liquid-gas refers to the force per length acting along the surface. For `NCCO` [2-aminoethan-1-ol], the surface tension liquid-gas is recorded as 48.48 ± 0.47 mN/m in data set [1] (293.15 K), 47.64 ± 0.46 mN/m in data set [1] (303.15 K) and 46.88 ± 0.46 mN/m in data set [1] (313.15 K).
Regarding `NCCO` [2-aminoethan-1-ol] + O, the surface tension liquid-gas in data set [2] (313.15 K) amounted to 51.5 ± 1.8 mN/m; in data set [2] (323.15 K), 50.4 ± 1.8 mN/m; in data set [2] (333.15 K), 49.3 ± 1.8 mN/m; in data set [2] (343.15 K), 48.1 ± 1.8 mN/m.
